Calls of active or inactive are those of the source. No cut-off for these calls is given here.
How the values were obtained:
Vaccinia virus = test: Antiviral activity against Vaccinia virus infected in HEL cells assessed as inhibition of virus-induced cytopathic effect; type: functional, organism-based; details: Orthopoxvirus vaccinia
Punta Toro virus = test: Antiviral activity against Punta Toro virus infected in Vero cells assessed as inhibition of virus-induced cytopathic effect; type: functional, organism-based
Human respirovirus 3 = test: Antiviral activity against Human parainfluenza virus 3 infected in Vero cells assessed as inhibition of virus-induced cytopathic effect; type: functional, organism-based
L1210 [1] = test: Cytostatic activity against mouse L1210 cells in presence of 20 uM 2'-deoxyuridine; type: functional, cell-based
[2] = system: Vesicular stomatitis virus; test: Antiviral activity against Vesicular stomatitis virus infected in HeLa cells assessed as inhibition of virus-induced cytopathic effect; type: functional, organism-based
HeLa [3] = test: Cytostatic activity against human HeLa cells in presence of 500 uM uridine; type: functional, cell-based
Sindbis virus = test: Antiviral activity against Sindbis virus infected in Vero cells assessed as inhibition of virus-induced cytopathic effect; type: functional, organism-based
Human alphaherpesvirus 1 = test: Antiviral activity against Herpes simplex virus type-1 infected in HEL cells assessed as inhibition of virus-induced cytopathic effect; type: functional, organism-based
[4] = system: Vesicular stomatitis virus; test: Antiviral activity against Vesicular stomatitis virus infected in HEL cells assessed as inhibition of virus-induced cytopathic effect; type: functional, organism-based
L1210 [5] = test: Cytostatic activity against mouse L1210 cells in presence of 500 uM uracil; type: functional, cell-based
FM3A = test: Cytostatic activity against mouse FM3A cells after 2 days by coulter counting analysis; type: functional, cell-based; details: 48 h
L1210 [6] = test: Cytostatic activity against mouse L1210 cells after 2 days by coulter counting analysis; type: functional, cell-based; details: L1210, 48 h
L1210 [7] = test: Cytostatic activity against mouse L1210 cells in presence of 500 uM uridine; type: functional, cell-based
[8] = system: Respiratory syncytial virus; test: Antiviral activity against Respiratory syncytial virus infected in HeLa cells assessed as inhibition of virus-induced cytopathic effect; type: functional, organism-based
Human alphaherpesvirus 2 = test: Antiviral activity against Herpes simplex virus type-2 infected in HEL cells assessed as inhibition of virus-induced cytopathic effect; type: functional, organism-based
HeLa [9] = test: Cytostatic activity against human HeLa cells in presence of 500 uM uracil; type: functional, cell-based
L1210 [10] = test: Cytostatic activity against mouse L1210 cells in presence of 20 uM thymidine; type: functional, cell-based
Coxsackievirus B4 [11] = test: Antiviral activity against Human coxsackievirus B4 infected in HeLa cells assessed as inhibition of virus-induced cytopathic effect; type: functional, organism-based
[12] = system: Mammalian orthoreovirus 1; test: Antiviral activity against Reovirus 1 infected in Vero cells assessed as inhibition of virus-induced cytopathic effect; type: functional, organism-based
HeLa [13] = test: Cytostatic activity against human HeLa cells in presence of 20 uM 2'-deoxyuridine; type: functional, cell-based
HeLa [14] = test: Cytostatic activity against human HeLa cells in presence of 20 uM thymidine; type: functional, cell-based
Coxsackievirus B4 [15] = test: Antiviral activity against Human coxsackievirus B4 infected in Vero cells assessed as inhibition of virus-induced cytopathic effect; type: functional, organism-based
Thymidylate synthase [16] = molecular target: T1, Thymidylate synthase (Mus musculus, UniProt P07607); test: Inhibition of thymidylate synthase in mouse L1210 cells assessed as inhibition of tritium release from [5-3H]deoxyuridine after preincubation for 15 mins by liquid scintillation counting; type: cell-based
Thymidylate synthase [17] = molecular target: T1, Thymidylate synthase; test: Inhibition of thymidylate synthase in mouse L1210 cells assessed as inhibition of tritium release from [5-3H]deoxyuridine after preincubation for 24 hrs by liquid scintillation counting; type: cell-based
Thymidylate synthase [18] = molecular target: T1, Thymidylate synthase; test: Inhibition of thymidylate synthase in mouse L1210 cells assessed as inhibition of tritium release from [5-3H]deoxycytidine after preincubation for 24 hrs by liquid scintillation counting; type: cell-based
Thymidylate synthase [19] = molecular target: T1, Thymidylate synthase; test: Inhibition of thymidylate synthase in mouse L1210 cells assessed as inhibition of tritium release from [5-3H]deoxycytidine after preincubation for 15 mins by liquid scintillation counting; type: cell-based
Thymidylate synthase [20] = molecular target: T1, Thymidylate synthase; test: Inhibition of thymidylate synthase in mouse L1210 cells assessed as inhibition of tritium release from [5-3H]deoxyuridine after preincubation for 4 hrs by liquid scintillation counting; type: cell-based
L1210 [21] = test: Inhibition of DNA synthesis in mouse L1210 cells assessed as [6-3H]2'-deoxyuridine incorporation in to DNA by liquid scintillation counting; type: functional, cell-based
L1210 [22] = test: Inhibition of DNA synthesis in mouse L1210 cells assessed as [methyl-3H]thymidine incorporation in to DNA by liquid scintillation counting; type: functional, cell-based
HeLa [23] = test: Cytostatic activity against human HeLa cells after 3 days by coulter counting analysis; type: functional, cell-based; details: 72 h
CCRF-CEM = test: Cytostatic activity against human CEM cells after 3 days by coulter counting analysis; type: functional, cell-based; details: 72 h
L1210 [24] = test: Inhibition of DNA synthesis in mouse L1210 cells assessed as [6-3H]2'-deoxyuridine incorporation in to DNA preincubated for 24 hrs by liquid scintillation counting; type: functional, cell-based
L1210 [25] = test: Inhibition of RNA synthesis in mouse L1210 cells assessed as [5-3H]uridine incorporation in to RNA by liquid scintillation counting; type: functional, cell-based
L1210 [26] = test: Inhibition of RNA synthesis in mouse L1210 cells assessed as [5-3H]uridine incorporation in to RNA preincubated for 24 hrs by liquid scintillation counting; type: functional, cell-based
L1210 [27] = test: Inhibition of DNA synthesis in mouse L1210 cells assessed as [methyl-3H]thymidine incorporation in to DNA preincubated for 24 hrs by liquid scintillation counting; type: functional, cell-based
Thymidylate synthase [28] = molecular target: T1, Thymidylate synthase; test: Inhibition of thymidylate synthase in mouse L1210 cells assessed as inhibition of tritium release from [5-3H]deoxycytidine after preincubation for 4 hrs by liquid scintillation counting; type: cell-based
[29] = Stability of compound in phosphate buffered saline up to 3 days; type: physicochemical; details: buffer, 72 h

T1 sequence (P07607 whole entry): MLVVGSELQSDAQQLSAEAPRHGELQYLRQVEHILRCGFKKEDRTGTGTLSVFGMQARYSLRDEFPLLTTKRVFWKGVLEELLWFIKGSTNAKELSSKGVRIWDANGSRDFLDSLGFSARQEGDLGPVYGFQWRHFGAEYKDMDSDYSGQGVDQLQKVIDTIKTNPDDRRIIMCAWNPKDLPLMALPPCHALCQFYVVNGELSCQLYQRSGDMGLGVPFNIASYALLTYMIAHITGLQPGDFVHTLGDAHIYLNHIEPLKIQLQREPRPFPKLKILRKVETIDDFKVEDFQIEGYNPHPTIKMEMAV

SMILES | Activity (Vaccinia virus) | Activity (Punta Toro virus) | Activity (Human respirovirus 3) | IC50 (L1210 [1]) [nM] | Activity [2] | IC50 (HeLa [3]) [nM] | Activity (Sindbis virus) | Activity (Human alphaherpesvirus 1) | Activity [4] | IC50 (L1210 [5]) [nM] | IC50 (FM3A) [nM] | IC50 (L1210 [6]) [nM] | IC50 (L1210 [7]) [nM] | Activity [8] | Activity (Human alphaherpesvirus 2) | IC50 (HeLa [9]) [nM] | IC50 (L1210 [10]) [nM] | Activity (Coxsackievirus B4 [11]) | Activity [12] | Activity (Coxsackievirus B4 [15]) | further results
O=c1[nH]c(=O)n([C@@H]2O[C@H](CO)[C@@H](O)[C@H]2O)cc1F [5-FLUOROURIDINE] | inactive | inactive | inactive | 26 | inactive | 1600 | inactive | inactive | inactive | 7.5 | 14 | 14 | 720 | inactive | inactive | 16 | 1200 | inactive | inactive | inactive | IC50 (HeLa [13]): 22 nM; IC50 (HeLa [14]): 17 nM
O=c1[nH]c(=O)n([C@H]2C[C@H](O)[C@@H](CO)O2)cc1F [FLOXURIDINE] | inactive | inactive | inactive | 5.1 | inactive | 61 | inactive | inactive | inactive | 0.63 | 9.4 | 1.1 | 2.3 | inactive | inactive | 110 | 100000 | inactive | inactive | inactive | IC50 (Thymidylate synthase [16]): 0.6 nM; IC50 (Thymidylate synthase [17]): 0.4 nM; IC50 (Thymidylate synthase [18]): 0.7 nM; IC50 (Thymidylate synthase [19]): 0.6 nM; IC50 (Thymidylate synthase [20]): 0.4 nM; IC50 (HeLa [13]): 21 nM; IC50 (HeLa [14]): 8500 nM
C=C1[C@H](O)[C@H](O)CO[C@@H]1n1cc(F)c(O)nc1=O | inactive | inactive | inactive | 66000 | inactive | 79000 | inactive | inactive | inactive | 18000 | 1900 | 21000 | 18000 | inactive | inactive | 58000 | > 500000 | inactive | inactive | inactive | IC50 (L1210 [21]): 85000 nM; IC50 (L1210 [22]): > 500000 nM; IC50 (HeLa [23]): 18000 nM; IC50 (CCRF-CEM): 97000 nM; IC50 (L1210 [24]): 18000 nM; IC50 (L1210 [25]): > 100000 nM; IC50 (HeLa [13]): 12000 nM; IC50 (L1210 [26]): 282000 nM; IC50 (L1210 [27]): > 500000 nM; IC50 (HeLa [14]): 146000 nM
C=C1C=CCO[C@@H]1n1cc(F)c(O)nc1=O | inactive | inactive | inactive | 18000 | inactive | 8000 | inactive | inactive | inactive | 5800 | 2400 | 8000 | 5700 | inactive | inactive | 18000 | 182000 | inactive | inactive | inactive | IC50 (L1210 [21]): 37000 nM; IC50 (L1210 [22]): > 500000 nM; IC50 (HeLa [23]): 3500 nM; IC50 (CCRF-CEM): 85000 nM; IC50 (L1210 [24]): 7900 nM; IC50 (L1210 [25]): > 100000 nM; IC50 (HeLa [13]): 1400 nM; IC50 (L1210 [26]): 84000 nM; IC50 (L1210 [27]): > 500000 nM; IC50 (HeLa [14]): 34000 nM
O=c1[nH]cc(F)c(=O)[nH]1 [FLUOROURACIL] | inactive | inactive | inactive | 1300 | inactive | 1100 | inactive | inactive | inactive | 470 | 180 |  | 620 | inactive | inactive | 1000 | 21000 | inactive | inactive | inactive | IC50 (L1210 [21]): 970 nM; IC50 (L1210 [22]): > 500000 nM; IC50 (Thymidylate synthase [16]): 7000 nM; IC50 (Thymidylate synthase [28]): 600 nM; IC50 (Thymidylate synthase [17]): 20 nM; IC50 (HeLa [23]): 450 nM; IC50 (Thymidylate synthase [18]): 60 nM; IC50 (L1210 [24]): 370 nM; IC50 (Thymidylate synthase [19]): ≥ 10000 nM; IC50 (L1210 [25]): 51000 nM; IC50 (Thymidylate synthase [20]): 220 nM; IC50 (HeLa [13]): 180 nM; IC50 (L1210 [26]): 4900 nM; IC50 (L1210 [27]): > 500000 nM; IC50 (HeLa [14]): 1500 nM
O=C1C=CCO[C@@H]1n1cc(F)c(=O)[nH]c1=O |  |  |  |  |  |  |  |  |  |  |  |  |  |  |  |  |  |  |  |  | IC50 (Thymidylate synthase [16]): 8100 nM; IC50 (Thymidylate synthase [28]): 950 nM; Stability [29]: Unstable; IC50 (Thymidylate synthase [17]): 63 nM; IC50 (Thymidylate synthase [18]): 71 nM; IC50 (Thymidylate synthase [19]): > 10000 nM; IC50 (Thymidylate synthase [20]): 830 nM
O=C(Nc1ccn([C@H]2OCC=CC2=O)c(=O)n1)c1ccccc1 | inactive | inactive | inactive |  | inactive |  | inactive | inactive | inactive |  | 62000 | 28000 |  | inactive | inactive |  |  | inactive | inactive | inactive | IC50 (HeLa [23]): 72000 nM; IC50 (CCRF-CEM): 46000 nM

Source: ChEMBL document CHEMBL1759968, “Synthesis and biological evaluation of unsaturated keto and exomethylene D-arabinopyranonucleoside analogs: novel 5-fluorouracil analogs that target thymidylate synthase” (Eur J Med Chem, 2011)
